Results from the NIST ThermoML archive (doi:10.1021/je5002126).
± gives the expanded uncertainty stated by the source.

Assays:
[1] = xn = mol fraction of the nth substance listed; conditions: for electrical conductivity / viscosity / mass density: 101 kPa, Liquid; for electrical conductivity: Alternating current cell with electrodes; for viscosity: Concentric cylinders viscometry; for mass density: Vibrating tube method; for surface tension liquid-gas: Ring tensiometer
[2] = refractive index (Na D-line) (dimensionless); xn = mol fraction of the nth substance listed; conditions: 101 kPa, Liquid, Standard Abbe refractometry

`CCCC[N+](CCCC)(CCCC)CCCC.[Cl-]` [tetrabutylammonium chloride] + OCCOCCOCCO gave an electrical conductivity ([1]; 293.15 K, x1 = 0.5) of 0.0139 ± 0.00056 S/m, an electrical conductivity ([1]; 293.15 K, x1 = 0.667) of 0.00681 ± 0.00027 S/m and an electrical conductivity ([1]; 293.15 K, x1 = 0.75) of 0.00221 ± 8.8e-05 S/m. The electrical conductivity ([1]; 293.15 K, x1 = 0.8) was 0.00178 ± 7.1e-05 S/m, the viscosity ([1]; 293.15 K, x1 = 0.5) was 870 ± 93 mPa·s and the mass density ([1]; 293.15 K, x1 = 0.5) was 1027 ± 1 kg/m3. The mass density ([1]; 293.15 K, x1 = 0.667) was 1007 ± 1 kg/m3, the mass density ([1]; 293.15 K, x1 = 0.75) was 996 ± 1 kg/m3 and the mass density ([1]; 293.15 K, x1 = 0.8) was 990 ± 10 kg/m3. The surface tension liquid-gas ([1]; 303.15 K, x1 = 0.5) was 40.6 ± 1.2 mN/m, the surface tension liquid-gas ([1]; 303.15 K, x1 = 0.667) was 40.1 ± 1.2 mN/m and the surface tension liquid-gas ([1]; 303.15 K, x1 = 0.75) was 39.3 ± 1.2 mN/m. It also gave a surface tension liquid-gas ([1]; 303.15 K, x1 = 0.8) of 40 ± 1 mN/m, an electrical conductivity ([1]; 303.15 K, x1 = 0.5) of 0.0228 ± 0.0009 S/m and an electrical conductivity ([1]; 303.15 K, x1 = 0.667) of 0.0149 ± 0.0006 S/m. The electrical conductivity ([1]; 303.15 K, x1 = 0.75) was 0.005 ± 0.0002 S/m, the electrical conductivity ([1]; 303.15 K, x1 = 0.8) was 0.0047 ± 0.0002 S/m and the viscosity ([1]; 303.15 K, x1 = 0.5) was 543.8 ± 57 mPa·s. It also gave a viscosity ([1]; 303.15 K, x1 = 0.667) of 1399 ± 150 mPa·s, a viscosity ([1]; 303.15 K, x1 = 0.8) of 3265.3 ± 370 mPa·s and a mass density ([1]; 303.15 K, x1 = 0.5) of 1021 ± 1 kg/m3. For the same molecule, the mass density ([1]; 303.15 K, x1 = 0.667) was 1001 ± 1 kg/m3, the mass density ([1]; 303.15 K, x1 = 0.75) was 990 ± 10 kg/m3 and the mass density ([1]; 303.15 K, x1 = 0.8) was 985 ± 1 kg/m3. It also gave a surface tension liquid-gas ([1]; 313.15 K, x1 = 0.5) of 39.5 ± 1.2 mN/m, a surface tension liquid-gas ([1]; 313.15 K, x1 = 0.667) of 38.6 ± 1.2 mN/m and a surface tension liquid-gas ([1]; 313.15 K, x1 = 0.75) of 38.3 ± 1.2 mN/m. For the same molecule, the surface tension liquid-gas ([1]; 313.15 K, x1 = 0.8) was 38.4 ± 1.2 mN/m, the electrical conductivity ([1]; 313.15 K, x1 = 0.5) was 0.0376 ± 0.0015 S/m and the electrical conductivity ([1]; 313.15 K, x1 = 0.667) was 0.0284 ± 0.0011 S/m. For the same molecule, the electrical conductivity ([1]; 313.15 K, x1 = 0.75) was 0.0097 ± 0.0004 S/m, the electrical conductivity ([1]; 313.15 K, x1 = 0.8) was 0.0108 ± 0.0004 S/m and the viscosity ([1]; 313.15 K, x1 = 0.5) was 289.4 ± 30 mPa·s. The viscosity ([1]; 313.15 K, x1 = 0.667) was 952.2 ± 100 mPa·s, the viscosity ([1]; 313.15 K, x1 = 0.75) was 7031.7 ± 830 mPa·s and the viscosity ([1]; 313.15 K, x1 = 0.8) was 1900.4 ± 210 mPa·s. The mass density ([1]; 313.15 K, x1 = 0.5) was 1015 ± 1 kg/m3, the mass density ([1]; 313.15 K, x1 = 0.667) was 995 ± 1 kg/m3 and the mass density ([1]; 313.15 K, x1 = 0.75) was 984 ± 1 kg/m3. The mass density ([1]; 313.15 K, x1 = 0.8) was 980 ± 10 kg/m3, the surface tension liquid-gas ([1]; 323.15 K, x1 = 0.5) was 38.8 ± 1.2 mN/m and the surface tension liquid-gas ([1]; 323.15 K, x1 = 0.667) was 38 ± 1 mN/m. The surface tension liquid-gas ([1]; 323.15 K, x1 = 0.75) was 37.2 ± 1.2 mN/m, the surface tension liquid-gas ([1]; 323.15 K, x1 = 0.8) was 37.3 ± 1.2 mN/m and the electrical conductivity ([1]; 323.15 K, x1 = 0.5) was 0.055 ± 0.0022 S/m. The electrical conductivity ([1]; 323.15 K, x1 = 0.667) was 0.0458 ± 0.0018 S/m, the electrical conductivity ([1]; 323.15 K, x1 = 0.75) was 0.0154 ± 0.0006 S/m and the electrical conductivity ([1]; 323.15 K, x1 = 0.8) was 0.0214 ± 0.0009 S/m. For the same molecule, the viscosity ([1]; 323.15 K, x1 = 0.5) was 166.4 ± 17 mPa·s, the viscosity ([1]; 323.15 K, x1 = 0.667) was 493 ± 52 mPa·s and the viscosity ([1]; 323.15 K, x1 = 0.75) was 909.1 ± 120 mPa·s. It also gave a viscosity ([1]; 323.15 K, x1 = 0.8) of 862.9 ± 93 mPa·s, a mass density ([1]; 323.15 K, x1 = 0.5) of 1009 ± 1 kg/m3 and a mass density ([1]; 323.15 K, x1 = 0.667) of 989 ± 1 kg/m3. It also gave a mass density ([1]; 323.15 K, x1 = 0.75) of 978 ± 1 kg/m3, a mass density ([1]; 323.15 K, x1 = 0.8) of 973 ± 1 kg/m3 and a surface tension liquid-gas ([1]; 333.15 K, x1 = 0.5) of 38.2 ± 1.2 mN/m. The surface tension liquid-gas ([1]; 333.15 K, x1 = 0.667) was 37.4 ± 1.2 mN/m, the surface tension liquid-gas ([1]; 333.15 K, x1 = 0.75) was 36.6 ± 1.2 mN/m and the surface tension liquid-gas ([1]; 333.15 K, x1 = 0.8) was 36.5 ± 1.2 mN/m. The electrical conductivity ([1]; 333.15 K, x1 = 0.5) was 0.0805 ± 0.0032 S/m, the electrical conductivity ([1]; 333.15 K, x1 = 0.667) was 0.0676 ± 0.0027 S/m and the electrical conductivity ([1]; 333.15 K, x1 = 0.75) was 0.0217 ± 0.0009 S/m. The electrical conductivity ([1]; 333.15 K, x1 = 0.8) was 0.0252 ± 0.001 S/m, the viscosity ([1]; 333.15 K, x1 = 0.5) was 100.8 ± 10 mPa·s and the viscosity ([1]; 333.15 K, x1 = 0.667) was 264.1 ± 27 mPa·s. It also gave a viscosity ([1]; 333.15 K, x1 = 0.75) of 452.1 ± 48 mPa·s, a viscosity ([1]; 333.15 K, x1 = 0.8) of 411.2 ± 43 mPa·s and a mass density ([1]; 333.15 K, x1 = 0.5) of 1003 ± 1 kg/m3. It also gave a mass density ([1]; 333.15 K, x1 = 0.667) of 983 ± 1 kg/m3, a mass density ([1]; 333.15 K, x1 = 0.75) of 972 ± 1 kg/m3 and a mass density ([1]; 333.15 K, x1 = 0.8) of 968 ± 1 kg/m3. The surface tension liquid-gas ([1]; 343.15 K, x1 = 0.5) was 37.6 ± 1.2 mN/m, the surface tension liquid-gas ([1]; 343.15 K, x1 = 0.667) was 36.4 ± 1.2 mN/m and the surface tension liquid-gas ([1]; 343.15 K, x1 = 0.75) was 35.7 ± 1.2 mN/m. The surface tension liquid-gas ([1]; 343.15 K, x1 = 0.8) was 35.6 ± 1.2 mN/m, the electrical conductivity ([1]; 343.15 K, x1 = 0.5) was 0.11 ± 0.0044 S/m and the electrical conductivity ([1]; 343.15 K, x1 = 0.667) was 0.0842 ± 0.0034 S/m. It also gave an electrical conductivity ([1]; 343.15 K, x1 = 0.75) of 0.0282 ± 0.0011 S/m, an electrical conductivity ([1]; 343.15 K, x1 = 0.8) of 0.0262 ± 0.001 S/m and a viscosity ([1]; 343.15 K, x1 = 0.5) of 68.1 ± 6.9 mPa·s. For the same molecule, the viscosity ([1]; 343.15 K, x1 = 0.667) was 154 ± 16 mPa·s, the viscosity ([1]; 343.15 K, x1 = 0.75) was 244.7 ± 25 mPa·s and the viscosity ([1]; 343.15 K, x1 = 0.8) was 204.5 ± 21 mPa·s. It also gave a mass density ([1]; 343.15 K, x1 = 0.5) of 997 ± 1 kg/m3, a mass density ([1]; 343.15 K, x1 = 0.667) of 976 ± 1 kg/m3 and a mass density ([1]; 343.15 K, x1 = 0.75) of 966 ± 1 kg/m3. For the same molecule, the mass density ([1]; 343.15 K, x1 = 0.8) was 961 ± 1 kg/m3, the surface tension liquid-gas ([1]; 353.15 K, x1 = 0.5) was 37 ± 1 mN/m and the surface tension liquid-gas ([1]; 353.15 K, x1 = 0.667) was 35.6 ± 1.2 mN/m. It also gave a surface tension liquid-gas ([1]; 353.15 K, x1 = 0.75) of 34.9 ± 1.1 mN/m, a surface tension liquid-gas ([1]; 353.15 K, x1 = 0.8) of 34.6 ± 1.1 mN/m and an electrical conductivity ([1]; 353.15 K, x1 = 0.5) of 0.147 ± 0.0059 S/m. It also gave an electrical conductivity ([1]; 353.15 K, x1 = 0.667) of 0.092 ± 0.0037 S/m, an electrical conductivity ([1]; 353.15 K, x1 = 0.75) of 0.0319 ± 0.0013 S/m and an electrical conductivity ([1]; 353.15 K, x1 = 0.8) of 0.0273 ± 0.0011 S/m. The viscosity ([1]; 353.15 K, x1 = 0.5) was 44.7 ± 4.5 mPa·s, the viscosity ([1]; 353.15 K, x1 = 0.667) was 91.3 ± 9.2 mPa·s and the viscosity ([1]; 353.15 K, x1 = 0.75) was 155.6 ± 16 mPa·s. It also gave a viscosity ([1]; 353.15 K, x1 = 0.8) of 99.9 ± 10 mPa·s, a mass density ([1]; 353.15 K, x1 = 0.5) of 991 ± 1 kg/m3 and a mass density ([1]; 353.15 K, x1 = 0.667) of 970 ± 10 kg/m3. The mass density ([1]; 353.15 K, x1 = 0.75) was 960 ± 10 kg/m3, the mass density ([1]; 353.15 K, x1 = 0.8) was 955 ± 1 kg/m3 and the refractive index ([2]; 293.15 K, x1 = 0.5) was 1.48 ± 0.01. It also gave a refractive index ([2]; 293.15 K, x1 = 0.667) of 1.4851 ± 0.0021, a refractive index ([2]; 293.15 K, x1 = 0.75) of 1.4858 ± 0.0021 and a refractive index ([2]; 293.15 K, x1 = 0.8) of 1.4871 ± 0.0021. It also gave a refractive index ([2]; 303.15 K, x1 = 0.5) of 1.4772 ± 0.0021, a refractive index ([2]; 303.15 K, x1 = 0.667) of 1.4821 ± 0.0021 and a refractive index ([2]; 303.15 K, x1 = 0.75) of 1.4836 ± 0.0021. The refractive index ([2]; 303.15 K, x1 = 0.8) was 1.4841 ± 0.0021, the refractive index ([2]; 313.15 K, x1 = 0.5) was 1.4742 ± 0.0021 and the refractive index ([2]; 313.15 K, x1 = 0.667) was 1.479 ± 0.002. It also gave a refractive index ([2]; 313.15 K, x1 = 0.75) of 1.4806 ± 0.0021, a refractive index ([2]; 313.15 K, x1 = 0.8) of 1.4811 ± 0.0021 and a refractive index ([2]; 323.15 K, x1 = 0.5) of 1.4711 ± 0.0021. It also gave a refractive index ([2]; 323.15 K, x1 = 0.667) of 1.476 ± 0.002, a refractive index ([2]; 323.15 K, x1 = 0.75) of 1.4777 ± 0.0021 and a refractive index ([2]; 323.15 K, x1 = 0.8) of 1.4781 ± 0.0021. The refractive index ([2]; 333.15 K, x1 = 0.5) was 1.4678 ± 0.0021, the refractive index ([2]; 333.15 K, x1 = 0.667) was 1.4731 ± 0.0021 and the refractive index ([2]; 333.15 K, x1 = 0.75) was 1.4747 ± 0.0021. It also gave a refractive index ([2]; 333.15 K, x1 = 0.8) of 1.4752 ± 0.0021, a refractive index ([2]; 343.15 K, x1 = 0.5) of 1.4646 ± 0.0021 and a refractive index ([2]; 343.15 K, x1 = 0.667) of 1.4701 ± 0.0021. For the same molecule, the refractive index ([2]; 343.15 K, x1 = 0.75) was 1.4717 ± 0.0021, the refractive index ([2]; 343.15 K, x1 = 0.8) was 1.4722 ± 0.0021 and the refractive index ([2]; 353.15 K, x1 = 0.5) was 1.4614 ± 0.0021. The refractive index ([2]; 353.15 K, x1 = 0.667) was 1.4673 ± 0.0021, the refractive index ([2]; 353.15 K, x1 = 0.75) was 1.4686 ± 0.0021 and the refractive index ([2]; 353.15 K, x1 = 0.8) was 1.4692 ± 0.0021.
